Values quoted from earlier work in paper PMC12241124 (Frontiers in Microbiology, 2025).

Settings: ref Mygind et al., 2005

Which “terminal serum elimination half-life” value does the source give for plectasin here?
Its value is 51 min.
